According to patent US11439657B2, “Cancer stem cell growth inhibitor using miRNA” (CancerStem Tech Inc., priority 2017, dated 2022):
“Also recorded” adds a separate entry of the source.

Legend:
[1] = tested on: human large bowel cancer cells (DLD1 line); assay: Antitumor effect on human large bowel cancer cells, cell count after transfection; format: cell-based; settings: 10 pmol/well, FIG. 11; for antitumor effect: 72 hours, positive control hsa-miR-34a; for proliferation inhibitory effect on large bowel cancer cells: cells counted 72 hours after transfection
Method: (§1) A cell suspension prepared by suspending human pancreatic cancer cells (Bxpc3 line) in D-MEM medium (containing 10% by volume FBS) was seeded in each well of a 24-well plate at 3×10^3 cells/well, followed by culture at 37° C. overnight. Thereafter, according to the lipofectamin 2000 protocol, each miRNA was transfected at 10 pmol/well, and 48 hours later, the cells were counted. In addition, tests were also conducted under the same condition on a case where the miRNA was not introduced (untreated group), a case where hsa-miR-34a (SEQ ID NO: 8) was used (positive control) in place of the miRNA, and a case where a control miRNA (SEQ ID NO: 9) was used (control miRNA, negative control) in place of the selected miRNA.
(§2) As to hsa-miR-136-5p, hsa-miR-3065-3p, hsa-miR-4727-5p, hsa-miR-378g, hsa-miR-181a-5p, hsa-miR-362-5p and hsa-miR-608, evaluation was performed of the antitumor effect on human large bowel cancer cells. The specific test method is the same as that for Test Example 4 except that human large bowel cancer cells (DLD1 line) were used as cancer cells, and that the cells were counted 72 hours after transfection.

[2] = tested on: solid tumor from the cancer stem cell population (ZsGreen+); assay: Mouse subcutaneous solid tumor model test; format: in vivo, BALB/cA nude mice
Method: In 100 ml of distilled water, 0.37 g of NaHCO3, 90 μl of NaH2PO4.2H2O (1M) and 180 μl of CaCl2 (1 M) were added in this order and dissolved, and the pH was adjusted to 7.5 with 1N HCl. This was filtered through 0.2 μm diameter filter. Per 1 ml of the resultant buffer, 2 μg of miRNA and 4 μl of CaCl2 (1 M) were mixed and incubated in a water bath at 37° C. for 30 minutes. Then, spin down was performed at 15000 rpm×5 minutes. The resultant pellet was dispersed in physiological saline (containing 0.5 wt % albumin). Accordingly, a dispersion of composite particles containing the miRNA in carbonate apatite particles was obtained. The resultant dispersion was subjected to ultrasonic vibration treatment for 10 minutes just prior to testing. Note that the ultrasonic vibration treatment was performed for 10 minutes using a water bath with an ultrasonic vibration function, in which the dispersion contained in a plastic container was floated on water set to 20° C., under conditions of high frequency output of 55 W and oscillation frequency of 38 kHz. The preparation obtained in this way was immediately used for the tests described below.
Note that it is confirmed in the measurement using a scanning probe microscope that the dispersion of ultrasonic vibration treatment includes composite particles composed of carbonate apatite nanoparticles containing the miRNA having an average particle diameter of 50 nm or less. It is also confirmed that the resultant composite particles contain about 20 μg of the miRNA per 1 mg of carbonate apatite.
The cancer stem cell population (ZsGreen+) obtained in Test Example 1 was subcutaneously injected at 5×10^5 cells to the left and right backs of 6 to 8 weeks age BALB/cA nude mice (manufactured by CLEA Japan, Inc.) to produce solid tumor model mice. When the tumor reached about 20 mm^3 in size, the mice were randomly divided into an hsa-miR-136-5p administration group (hsa-miR-136-5p), an untreated group, and a negative control group (control miRNA). In the hsa-miR-136-5p administration group, the day at which the tumor reached about 20 mm^3 in size was 0th day. On the 0th, 3rd, 5th, 7th, 10th, 12th, 14th, 17th and 19th days, carbonate apatite nanoparticles containing the hsa-miR-136-5p were intravenously injected into the tail vein at 40 μg/dose in terms of the amount of hsa-miR-136-5p. In the negative control group, carbonate apatite nanoparticles containing a control miRNA (SEQ ID NO: 9) were intravenously injected into the tail vein at the same schedule and dose as those for the miRNA136-5p administration group. In the untreated group, no drug was administered. During the test period, the tumor volume on the back of the mouse (longer diameter×shorter diameter×shorter diameter×1/2) was measured over time, and on the 24th day, the tumor was excised from the mice and observed for size, and its weight was measured.
A mouse subcutaneous solid tumor model test was conducted in the same manner as in Test Example 2 except that hsa-miR-3065-3p was used in place of hsa-miR-136-5p.
A mouse subcutaneous solid tumor model test was conducted in the same manner as in Test Example 2 except that hsa-miR-181-5p was used in place of hsa-miR-136-5p.

[3] = tested on: human esophageal cancer cells (TE11 line); assay: Antitumor effect on human esophageal cancer cells, cell count after transfection; format: cell-based; settings: 10 pmol/well, FIG. 12; for antitumor effect: 72 hours, positive control hsa-miR-34a; for proliferation inhibitory effect on esophageal cancer cells: cells counted 72 hours after transfection
Method: as §1
as §2, with “hsa-miR-378g and” for “hsa-miR-378g,”, “hsa-miR-181a-5p,” for “hsa-miR-181a-5p, hsa-miR-362-5p and hsa-miR-608,”, “esophageal” for “large bowel”, “(TE11” for “(DLD1”

[4] = tested on: human pancreatic cancer cells (PSN-1 line); assay: Antitumor effect on human pancreatic cancer cells (2), cell count after transfection; format: cell-based; settings: 10 pmol/well, 48 hours, FIG. 9
Method: as §1
As to hsa-miR-136-5p, hsa-miR-3065-3p and hsa-miR-181a-5p, evaluation was performed of the antitumor effect on human pancreatic cancer cells. The specific test method is the same as that for Test Example 4 except that a PSN-1 line was used as human pancreatic cancer cells.

[5] = tested on: human gastric cancer cells (AGS line); assay: Antitumor effect on human gastric cancer cells, cell count after transfection; format: cell-based; settings: 10 pmol/well, 48 hours, FIG. 10; for antitumor effect: positive control hsa-miR-34a
Method: as §1
As to hsa-miR-136-5p, hsa-miR-3065-3p and hsa-miR-181a-5p, evaluation was performed of the antitumor effect on human gastric cancer cells. The specific test method is the same as that for Test Example 4 except that human gastric cancer cells (AGS line) were used as cancer cells.

[6] = tested on: human pancreatic cancer cells (Bxpc3 line); assay: Antitumor effect on human pancreatic cancer cells (1), cell count after transfection; format: cell-based; settings: 10 pmol/well, FIG. 8; for antitumor effect: 48 hours, positive control hsa-miR-34a; for proliferation inhibitory effect on pancreatic cancer cells: cells counted 48 hours later
Method: as §1

Substance | antitumor effect [1] | proliferation inhibitory effect on large bowel cancer cells [1] | tumor volume as compared to the untreated group and the negative control group ([2]; from the 17th day, carbonate apatite nanoparticles, 40 μg/dose i.v., FIG. 6) | antitumor effect [3] | proliferation inhibitory effect on esophageal cancer cells [3] | proliferation inhibitory effect on pancreatic cancer cells [4] | proliferation inhibitory effect on gastric cancer cells [5] | antitumor effect [5] | antitumor effect [6] | proliferation inhibitory effect on pancreatic cancer cells [6] | tumor excised on the 24th day (size and weight) as compared to the untreated group and the negative control group ([2]; 24th day, carbonate apatite nanoparticles, 40 μg/dose i.v., FIGS. 5b and 5c) | tumor volume as compared to the untreated group and the negative control group ([2]; after the 7th day, carbonate apatite nanoparticles, 40 μg/dose i.v., FIG. 5a) | antitumor effect as compared to the untreated group and the negative control group (control miRNA) ([2]; carbonate apatite nanoparticles containing the miRNA, 40 μg/dose, tail vein i.v., days 0-19, tumor excised on the 24th day) | antitumor effect [4]
hsa-miR-3065-3p: human-derived miR-3065-3p; base sequence set forth in SEQ ID NO: 2 as mature miRNA (UCAGCACCAGGAUAUUGUUGGAG; listed as RNA, chemistry not given here; listed as Homo sapiens) | much better antitumor effect than that of hsa-miR-34a; also recorded: particularly remarkable antitumor effect | strong proliferation inhibitory effect | significantly reduced | much better antitumor effect than that of hsa-miR-34a; also recorded: particularly remarkable antitumor effect | strong proliferation inhibitory effect | strong proliferation inhibitory effect | strong proliferation inhibitory effect | much better antitumor effect than that of hsa-miR-34a | much better antitumor effect than that of hsa-miR-34a | strong proliferation inhibitory effect |  |  |  | 
hsa-miR-136-5p: human-derived miR-136-5p; base sequence set forth in SEQ ID NO: 1 as mature miRNA (ACUCCAUUUGUUUUGAUGAUGGA; listed as RNA, chemistry not given here; listed as Homo sapiens) | much better antitumor effect than that of hsa-miR-34a; also recorded: particularly remarkable antitumor effect | strong proliferation inhibitory effect |  | much better antitumor effect than that of hsa-miR-34a | strong proliferation inhibitory effect | strong proliferation inhibitory effect | strong proliferation inhibitory effect | much better antitumor effect than that of hsa-miR-34a; also recorded: particularly remarkable antitumor effect | much better antitumor effect than that of hsa-miR-34a; also recorded: particularly remarkable antitumor effect | strong proliferation inhibitory effect | significantly smaller | significantly smaller tumor volume | remarkably higher antitumor effect | particularly remarkable antitumor effect
